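1) Cells in 96-well plates. 2) Compound, 48 h, 5 concentrations. 3) Linear interpolation between surrounding doses. 4) Unreached endpoint = highest concentration. GI50: concentration for 50% inhibition of growth.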 The source made the active and inactive calls. Cut-off read from the data, not from the text of the source: active = GI50 up to about 1.1 µM and inactive = higher.
What was measured:
Experiment in all cases: inhibition of tumour cell growth, NCI panel, 48 h
OVCAR-5 = test system: OVCAR-5
BT-549 = test system: BT-549
RXF 393 = test system: RXF 393
UACC-62 = test system: UACC-62
OVCAR-3 = test system: OVCAR-3
SF-268 = test system: SF-268
CCRF-CEM = test system: CCRF-CEM
EKVX = test system: EKVX
A549 = test system: A549
Hs-578T = test system: Hs-578T
HL-60 = test system: HL-60
HCT-116 = test system: HCT-116
U-251 = test system: U-251
HCT-15 = test system: HCT-15
A498 = test system: A498
SR = test system: SR
HOP-92 = test system: HOP-92
SW-620 = test system: SW-620
OVCAR-8 = test system: OVCAR-8
LOX IMVI = test system: LOX IMVI
786-0 = test system: 786-0
M14 = test system: M14
SK-OV-3 = test system: SK-OV-3
NCI-H23 = test system: NCI-H23
SK-MEL-28 = test system: SK-MEL-28
SNB-19 = test system: SNB-19
MOLT-4 = test system: MOLT-4
ACHN = test system: ACHN
SF-539 = test system: SF-539
DU-145 = test system: DU-145
SNB-75 = test system: SNB-75
UACC-257 = test system: UACC-257
TK-10 = test system: TK-10
HOP-62 = test system: HOP-62
Malme-3M = test system: Malme-3M
SK-MEL-5 = test system: SK-MEL-5
IGROV-1 = test system: IGROV-1
MDA-N = test system: MDA-N
MCF7 = test system: MCF7
KM12 = test system: KM12
UO-31 = test system: UO-31
NCI-H460 = test system: NCI-H460
SF-295 = test system: SF-295
RPMI-8226 = test system: RPMI-8226
MDA-MB-231 = test system: MDA-MB-231
CAKI-1 = test system: CAKI-1
K562 = test system: K562
NCI/ADR-RES = test system: NCI/ADR-RES
PC-3 = test system: PC-3
NCI-H522 = test system: NCI-H522
HT-29 = test system: HT-29
MDA-MB-435 = test system: MDA-MB-435
NCI-H226 = test system: NCI-H226
HCC 2998 = test system: HCC 2998
COLO 205 = test system: COLO 205
T47D = test system: T47D
SN12C = test system: SN12C
SK-MEL-2 = test system: SK-MEL-2
OVCAR-4 = test system: OVCAR-4

## S=C(N/N=C(\C(=N/NC(=S)N1CCCCC1)c1ccccn1)c1ccccn1)N1CCCCC1
OVCAR-5
  GI50: 51.2 µM (inactive)
BT-549
  GI50: 78.2 µM (inactive)
RXF 393
  GI50: 18 µM (inactive)
UACC-62
  GI50: 26.5 µM (inactive)
OVCAR-3
  GI50: 3.63 µM (inactive)
SF-268
  GI50: 5.55 µM (inactive)
CCRF-CEM
  GI50: 3.91 µM (inactive)
EKVX
  GI50: 80 µM (inactive)
A549
  GI50: 31.1 µM (inactive)
Hs-578T
  GI50: 28.8 µM (inactive)
HL-60
  GI50: 1.12 µM (active)
HCT-116
  GI50: 15.5 µM (inactive)
U-251
  GI50: 32.7 µM (inactive)
HCT-15
  GI50: 6.87 µM
A498
  GI50: 32.7 µM (inactive)
SR
  GI50: > 100 µM (inactive)
HOP-92
  GI50: 64.3 µM (inactive)
SW-620
  GI50: 9.12 µM (inactive)
OVCAR-8
  GI50: 27.9 µM (inactive)
LOX IMVI
  GI50: 20.2 µM (inactive)
786-0
  GI50: 36.5 µM (inactive)
M14
  GI50: 15.2 µM (inactive)
SK-OV-3
  GI50: 29.1 µM (inactive)
NCI-H23
  GI50: 44.8 µM (inactive)
SK-MEL-28
  GI50: 21.1 µM (inactive)
SNB-19
  GI50: 30.3 µM (inactive)
MOLT-4
  GI50: 8.53 µM (inactive)
ACHN
  GI50: 6.84 µM (inactive)
SF-539
  GI50: 35.4 µM (inactive)
DU-145
  GI50: 14.9 µM (inactive)
SNB-75
  GI50: 56.1 µM (inactive)
UACC-257
  GI50: 54.1 µM (inactive)
TK-10
  GI50: 19.4 µM (inactive)
HOP-62
  GI50: 21.3 µM (inactive)
Malme-3M
  GI50: 17.3 µM (inactive)
SK-MEL-5
  GI50: 5.5 µM (inactive)
IGROV-1
  GI50: 48.8 µM (inactive)
MDA-N
  GI50: 57.8 µM (inactive)
MCF7
  GI50: 12.1 µM (inactive)
KM12
  GI50: 51.8 µM (inactive)
UO-31
  GI50: 19.2 µM (inactive)
NCI-H460
  GI50: 14 µM (inactive)
SF-295
  GI50: 34.8 µM (inactive)
RPMI-8226
  GI50: 67.9 µM (inactive)
MDA-MB-231
  GI50: > 100 µM (inactive)
CAKI-1
  GI50: 73.6 µM (inactive)
K562
  GI50: 32.5 µM (inactive)
NCI/ADR-RES
  GI50: 7.06 µM (inactive)
PC-3
  GI50: 35.1 µM (inactive)
NCI-H522
  GI50: 9.18 µM (inactive)
HT-29
  GI50: 61 µM (inactive)
MDA-MB-435
  GI50: 38.4 µM (inactive)
NCI-H226
  GI50: 26.3 µM (inactive)
HCC 2998
  GI50: 26.3 µM (inactive)
COLO 205
  GI50: 6.38 µM (inactive)

## O=[N+]([O-])c1ccc(/C=N/Nc2nnc3c4ccccc4c4ncccc4c3n2)o1
RXF 393
  GI50: > 10 µM (inactive)
T47D
  GI50: > 10 µM (inactive)
UACC-62
  GI50: > 10 µM (inactive)
SF-268
  GI50: > 10 µM (inactive)
CCRF-CEM
  GI50: > 10 µM (inactive)
EKVX
  GI50: > 10 µM (inactive)
A549
  GI50: > 10 µM (inactive)
HL-60
  GI50: > 10 µM (inactive)
HCT-15
  GI50: > 10 µM
SR
  GI50: > 10 µM (inactive)
SW-620
  GI50: > 10 µM (inactive)
OVCAR-8
  GI50: > 10 µM (inactive)
786-0
  GI50: > 10 µM (inactive)
M14
  GI50: > 10 µM (inactive)
SK-OV-3
  GI50: > 10 µM (inactive)
NCI-H23
  GI50: > 10 µM (inactive)
SK-MEL-28
  GI50: > 10 µM (inactive)
MOLT-4
  GI50: > 10 µM (inactive)
DU-145
  GI50: > 10 µM (inactive)
SNB-75
  GI50: > 10 µM (inactive)
UACC-257
  GI50: > 10 µM (inactive)
SN12C
  GI50: > 10 µM (inactive)
TK-10
  GI50: > 10 µM (inactive)
HOP-62
  GI50: > 10 µM (inactive)
Malme-3M
  GI50: > 10 µM (inactive)
SK-MEL-5
  GI50: > 10 µM (inactive)
IGROV-1
  GI50: > 10 µM (inactive)
MDA-N
  GI50: > 10 µM (inactive)
MCF7
  GI50: > 10 µM (inactive)
KM12
  GI50: > 10 µM (inactive)
SF-295
  GI50: > 10 µM (inactive)
RPMI-8226
  GI50: > 10 µM (inactive)
MDA-MB-231
  GI50: > 10 µM (inactive)
CAKI-1
  GI50: > 10 µM (inactive)
K562
  GI50: > 10 µM (inactive)
PC-3
  GI50: > 10 µM (inactive)
HT-29
  GI50: > 10 µM (inactive)
HCC 2998
  GI50: > 10 µM (inactive)
COLO 205
  GI50: > 10 µM (inactive)

## C=CCN1C(=O)CS/C1=N/NC(=O)C(O)(c1ccccc1)c1ccccc1
RXF 393
  GI50: > 10 µM (inactive)
T47D
  GI50: > 10 µM (inactive)
UACC-62
  GI50: > 10 µM (inactive)
SF-268
  GI50: > 10 µM (inactive)
CCRF-CEM
  GI50: > 10 µM (inactive)
A549
  GI50: > 10 µM (inactive)
HL-60
  GI50: > 10 µM (inactive)
U-251
  GI50: > 10 µM (inactive)
SR
  GI50: > 10 µM (inactive)
HOP-92
  GI50: > 10 µM (inactive)
SW-620
  GI50: > 10 µM (inactive)
SK-MEL-2
  GI50: > 10 µM (inactive)
786-0
  GI50: > 10 µM (inactive)
OVCAR-4
  GI50: > 10 µM (inactive)
M14
  GI50: > 10 µM (inactive)
SK-OV-3
  GI50: > 10 µM (inactive)
NCI-H23
  GI50: > 10 µM (inactive)
SK-MEL-28
  GI50: > 10 µM (inactive)
MOLT-4
  GI50: > 10 µM (inactive)
ACHN
  GI50: > 10 µM (inactive)
SNB-75
  GI50: > 10 µM (inactive)
HOP-62
  GI50: > 10 µM (inactive)
Malme-3M
  GI50: > 10 µM (inactive)
SK-MEL-5
  GI50: > 10 µM (inactive)
IGROV-1
  GI50: > 10 µM (inactive)
MCF7
  GI50: > 10 µM (inactive)
NCI-H460
  GI50: > 10 µM (inactive)
RPMI-8226
  GI50: > 10 µM (inactive)
CAKI-1
  GI50: > 10 µM (inactive)
K562
  GI50: > 10 µM (inactive)
NCI/ADR-RES
  GI50: > 10 µM (inactive)
MDA-MB-435
  GI50: > 10 µM (inactive)
COLO 205
  GI50: > 10 µM (inactive)

— ChEMBL document CHEMBL1201862, “PubChem BioAssay data set” (2004)
